Experimental data published in US20240307426A1, “USE OF SGLT-2 INHIBITORS FOR THE PREVENTION AND/OR TREATMENT OF RENAL DISEASES IN NON-HUMAN MAMMALS” (BOEHRINGER INGELHEIM VETMEDICA GMBH, priority 2021, published 2024).

Key:
[1] = test system: client owned dogs with CKD (IRIS stage 3); assay: Exploratory clinical field study - dogs (Example 2); assay type: in vivo, dog; conditions: CKD IRIS stage 3, 0.3 mg/kg bodyweight orally once daily
Protocol: (§1) Client owned patients diagnosed with CKD (IRIS stage 3) diagnosed via physical examination and biomarker levels are orally treated once daily with velagliflozin 0.3 mg/kg bodyweight. During the study period the body weight, body condition score, biomarker levels (creatinine and SDMA), proteinuria, presence of concomitant conditions and need for further medication are examined on regular basis during the visits at the site by the investigator. The parameters examined are creatinine and SDMA levels, proteinuria, blood pressure and hydration status. Additionally, variables as the delayed onset of renal failure, survival time of the dog patients, IRiS stage progression and renal related mortality and/or morbidity are observed.

[2] = test system: client owned cats with CKD (IRIS stage 3); assay: Exploratory clinical field study - cats (Example 1); assay type: in vivo, cat; conditions: CKD IRIS stage 3, 0.1 mg/kg bodyweight orally once daily
Protocol: as §1, with “0.1” for “0.3”, “SDMA),” for “SDMA), proteinuria,”, “pressure, quality of life,” for “pressure”, “cat” for “dog”

[3] = test system: client owned dogs with CKD; assay: Exploratory clinical field trial in client owned dogs with CKD (Example 4); assay type: in vivo, dog; conditions: 0.05 mg/kg bodyweight orally once daily
Protocol: as §1, with “CKD” for “CKD (IRIS stage 3)”, “0.05” for “0.3”, “IRIS” for “IRiS”

N#Cc1ccc([C@@H]2O[C@H](CO)[C@@H](O)[C@H](O)[C@H]2O)cc1Cc1ccc(C2CC2)cc1 [velagliflozin, Velagliflozin] was tested, and the “effect on renal function” value [1] was “beneficial effect on renal function”, the “progression of the disease” value [1] was “delay in progression of the disease” and the “effect on renal function” value [2] was “beneficial effect on renal function”. For the same compound, the “progression of the disease” value [2] was “delay in progression of the disease”, the “effect on renal function” value [3] was “beneficial effect on renal function” and the “progression of the disease” value [3] was “delay in progression of the disease”.
